Key:
[1] = hypotension in the anesthetized dog by the intravenous route; type: in vivo
Experimental: In the use of the compounds of the invention to produce hypotensive effects in warm-blooded animals, administration by the injectable route is preferred, preferably the intravenous route.
Thus in the anesthetized dog by the intravenous route the dose to produce hypotension is from about 1 μg/kg. to about 200 μg/kg. and preferably from about 10 μg/kg. to about 100 μg/kg.
Using this procedure the following results were obtained.

[2] = system: bronchoconstricting effects of a standard dose of acetylcholine; assay: bronchodilation in the guinea pig by aerosol inhalation (method of Rosenthale et al.); type: in vivo
Excerpt: In using the compounds of the invention to produce bronchodilating effects in warm-blooded animals, they may be administered in a variety of dosage forms: oral, injectable, and aerosol inhalation. Aerosol inhalation is a preferred method because of its rapid onset of action, great potency, and specificity of action. The particular dosage to obtain the bronchodilating effect will vary with the particular compound employed, the particular animal involved, and the degree of bronchodilation desired. In the guinea pig, by aerosol inhalation, the dose to produce bronchodilation is from about 0.15 micrograms to about 100 micrograms, and preferably from about 0.15 to about 50 micrograms. The bronchodilation produced upon aerosol inhalation can be observed by the method of Rosenthale et al., J. Pharmacol. Exp. Ther., 178, 541 (1971).
Using this procedure, the following results were obtained.

Compound	Δb.p. ([1]; dose 100 μg/kg.)	Percent inhibition of the bronchoconstricting effects of a standard dose of acetylcholine ([2]; dose 0.15 μg)	Percent inhibition of the bronchoconstricting effects of a standard dose of acetylcholine ([2]; dose 1.5 μg)	Δb.p. ([1]; dose 10 μg/kg.)
C=C1CC[C@H](/C=C/[C@@H](O)CCCCC)[C@H]1CCCCCCC(=O)O [2β-[(3S)-3-Hydroxy-Trans-1-Octenyl]-5-Methylene-1α-Cyclopentaneheptanoic Acid]	-32 mm. Hg	–	–	–
CCCCC[C@H](O)/C=C/[C@H]1CC[C@@H](C=O)[C@@H]1CCCCCCC(=O)O [5β-Formyl-2β-[(3S)-3-Hydroxy-Trans-1-Octenyl]-1α-Cyclopentane Heptanoic Acid]	-27 mm. Hg	36%	–	–
CCCCC[C@H](O)/C=C/[C@H]1CC[C@@H](C=O)[C@@H]1C/C=C\CCCC(=O)O [7-[5β-Formyl-2β-((3S)-3-Hydroxy-Trans-1-Octenyl)-1α-Cyclopentyl]-Cis-5-Heptenoic Acid]	–	–	55%	-17 mm. Hg
CCCCC[C@H](O)/C=C/[C@H]1CC[C@@H](CO)[C@@H]1C/C=C\CCCC(=O)O [7-[5β-Hydroxymethyl-2β-((3S)-3-Hydroxy-Trans-1-Octenyl)-1α-Cyclopentyl]-Cis-5-Heptenoic Acid]	-27 mm. Hg	–	–	–
C=C1CC[C@H](/C=C/[C@@H](O)CCCCC)[C@H]1C/C=C\CCCC(=O)O [7-[2β-((3S)-3-Hydroxy-Trans-1-Octenyl)-5-Methylene-1α-Cyclopentyl]-Cis-5-Heptenoic Acid]	–	–	46%	–
